Laboratory results: US20130072505A1, “6,9-Disubstituted Purine Derivatives and Their Use for Treating Skin” (priority 2006, published 2013)

Test system: human subjects
Assay: Human Repeated Insult Patch Test
Type: in vivo
Conditions: test gel about 0.1 percent
Experimental: Test gel (about 0.2 ml) containing about 0.1 percent 6-furfurylamino-9-(2-tetrahydropyranyl)purine was placed onto a 2 cm square occlusion patch was placed on each subjects back and remained for 24 hours. This procedure was repeated every Monday, Wednesday, and Friday until nine (9) applications had been made on the same area (induction phase). The area was examined before each new application. About 10-14 days after the ninth patch had been removed, a challenge patch (challenge phase) on a new area of the back and then examined 24 and 72 hours thereafter for reactivity. Skin responses were based on a six-point scale (0=no evidence of effect; +=barely perceptible; 1=mild; 2=moderate; 3=marked; and 4=severe).
Fifty-two (52) subjects completed the induction and challenge phases (total of 10 applications per subject).

Compound: c1coc(CNc2ncnc3c2ncn3C2CCCCO2)c1 (centres unmarked) [6-furfurylamino-9-(2-tetrahydropyranyl)purine]
- skin responses, six-point scale (0=no evidence of effect; +=barely perceptible; 1=mild; 2=moderate; 3=marked; 4=severe) (challenge phase, at 24 hours, 52 subjects): only one subject had a barely perceptible rating (+)
- induced allergic contact dermatitis or other irritation (induction and challenge phases): No evidence of induced allergic contact dermatitis or other irritation
